Results as given in patent US11129829B2, “Methods for modulating splicing” (Skyhawk Therapeutics, Inc., priority 2019, dated 2021).

Tests used:
Format in all cases: cell-based
[1] = system: FoxM1 A mRNA; test: Splice EC50: FoxM1 A mRNA increase (exon excluded); settings: read-out: Splice EC50 (nM)^B
[2] = system: A-673; test: A-673 cell viability
[3] = system: FoxM1 BC mRNA; test: Splice IC50: FoxM1 BC mRNA decrease (exon included); settings: read-out: Splice IC50 (nM)^C
[4] = Homo sapiens, A673, Cell viability

| SMILES | EC50 [1] [nM] | IC50 ([2]; Cell viability) [nM] | IC50 [3] [nM] | IC50 [2, 4] [nM] |
| --- | --- | --- | --- | --- |
| CN(c1ccc(-c2ccc(-n3nccn3)cc2O)nn1)[C@@H]1C[C@H]2CCC[C@@H](C1)N2 [compound 275, 2-(6-(((1R,3S,5S)-9-azabicyclo[3.3.1]nonan-3-yl)(methyl)amino)pyridazin-3-yl)-5-(2H-1,2,3-triazol-2-yl)phenol] | < 10 | < 10 | < 10 | – |
| Oc1cc(-c2cn[nH]c2)ccc1-c1ccc(O[C@@H]2C[C@H]3CCC[C@@H](C2)N3)nn1 [compound 277, 2-(6-(((1R,3R,5S)-9-azabicyclo[3.3.1]nonan-3-yl)oxy)pyridazin-3-yl)-5-(1H-pyrazol-4-yl)phenol] | > 1000 | > 1000 | > 1000 | – |
| CN(c1ccc(-c2ccc(-n3ccnn3)cc2O)nn1)[C@@H]1C[C@H]2CCC[C@@H](C1)N2 [compound 279, 2-(6-(((1R,3S,5S)-9-azabicyclo[3.3.1]nonan-3-yl)(methyl)amino)pyridazin-3-yl)-5-(1H-1,2,3-triazol-1-yl)phenol] | < 10 | 10 to 100 | < 10 | – |
| [2H]C([2H])([2H])n1ncc(-c2ccc(-c3ccc(N(C)[C@@H]4C[C@H]5CCC[C@@H](C4)N5)nn3)c(O)c2)cc1=O [compound 281] | < 10 | – | < 10 | < 10 |
| [2H]C([2H])([2H])n1ccc(-c2ccc(-c3ccc(N(C)[C@@H]4C[C@H]5CCC[C@@H](C4)N5)nn3)c(O)c2)cc1=O [compound 284, 4-(4-(6-(((1R,3S,5S)-9-azabicyclo[3.3.1]nonan-3-yl)(methyl)amino)pyridazin-3-yl)-3-hydroxyphenyl)-1-(methyl-d3)pyridin-2(1H)-one] | > 1000 | – | < 10 | < 10 |
